Measured values as given in patent publication US20250236840A1, “SELECTIVE EXPANSION OF DIFFERENT SUBPOPULATIONS OF T CELLS BY THE ALTERATION OF CELL SURFACING SIGNALS AND SIGNAL RATIO” (LIFE TECHNOLOGIES AS, priority 2015, published 2025).

System: T cells
Test: Effect of AHR agonist on Th17 polarization (intracellular IL-17 after PMA/Ionomycin)
Format: cell-based, human
Description: FIG. 8. T cells were activated with CD3/CD5 (upper) or CD3/ICOS (lower) figure and expanded in presence of standard Th17-polarizing cytokines/antibodies (cytokines package), or with 100 nM FICZ and IL-1B and IL-6. At day 13 cultures were stimulated with PMA/Ionomycin for 4-5 hours before assessment of IL-17A and IL-17F expression. Cytograms show intracellular expression of the cytokines.
Protocol permutation: T cells were activated with DYNABEADS® CD3/CD5, DYNABEADS® CD3/ICOS, or DYNABEADS® CD3/CD28 with equal signal strength and stoichiometry. Th17 polarization was facilitated by addition of i) cytokines (TGF-β, IL-23, IL-6, IL-1B) and αIL-4/α-IFN-γ neutralizing antibodies or ii) the AHR agonist FICZ plus IL-6, IL-1βa. Th17 polarization was assessed by intracellular staining of IL-17 and IFN-γ following PMA/Ionomycin activation of polarized T cells (FIG. 8).

O=Cc1c2c(cc3c1=Nc1ccccc1-3)=Nc1ccccc1-2 [FICZ, 6-formylindolo [3,2-b]carbazole]
Activity on T cells costimulated through CD5 (100 nM FICZ plus IL-1β and IL-6, CD3/CD5 beads, day 13): promising activity | Activity on T cells costimulated through ICOS (100 nM FICZ plus IL-1β and IL-6, CD3/ICOS beads, day 13): not | IL-17 producing cells compared to standard polarizing conditions (FICZ, IL-1β and IL-6 protocol): fewer
